Key:
[1] = Repeated administration: feed intake in DIO mice; assay type: in vivo, Mouse, C57BL/6J-DIO; parameters: unit not given here
Method: (§1) In addition, after administering the test substances into mice, the daily feed intake was measured, and the feeding amount was measured using an electronic scale for each breeding box, and the remaining amount was measured to calculate the daily feed intake. In case of an individual that gnawed heavily on heed, it was excluded from the measurement.
(§2) All the experimental results obtained in the present example were expressed as mean±standard error and tested using Prism5 (version 5.01). One-way analysis of variance (ANOVA) was performed on all data, and when significance was observed, Dunnett's test was performed to find out the test groups with a significant difference from the control group (significance level: two-sided 5% and 1%, 0.1%).
(§3) Except for the administration dose, animal number and administration cycle, most of the test processes were the same as in Example 2.1.1 above.
(§4) The test substances were administered twice a week (Days 0, 4, 7, 11, 14, 18, 21, 25) for a total of 8 times. For comparison, the control group in which the control substance Semaglutide was administered every day was prepared, and the comparison group in which Semaglutide was administered every day was administered once a day daily, and all the administration was progressed from 9 AM.

[2] = Repeated administration: body weight change in DIO mice; assay type: in vivo, Mouse, C57BL/6J-DIO
Method: The body weight of each mouse was measured on the day of the start of administration of the test substances (before administration), and thereafter, the body weight was measured every day ([…]), and the amount of the administration solution of the test substances was determined on the basis of the most recently measured body weight.
as §2, §3, §4

[3] = Single administration: feed intake in DIO mice; assay type: in vivo, Mouse, C57BL/6J-DIO; parameters: unit not given here
Method: (§5) The pharmacological effect of the fusion polypeptides produced and purified in Example 1 above was tested in mice (C57BL/6J, 6-week-old, male, 100 mice; Raonbio).
(§6) In the present example, DI0 mouse model (Mouse, C57BL/6J-DIO, male, 100 mice, 14-week-old (obesity feed feeding for 8 weeks)) in which obesity was induced by feeding a high-fat diet into the C57BL/6J mice for 8 weeks was used.
(§7) The administration of the test substances HT-ID1-GDF15, HT-ID2-GDF15, and HT-ID3-GDF15 and the control substance Semaglutide (Bachem) was conducted from the next day after group separation, and the administration time was performed at 9 AM every day. Subcutaneous administration was conducted for all the control substance and test substances. For the administration route of the control substance and test substances, subcutaneous administration was selected depending on the clinically scheduled administration route.
(§8) For all the control substance and test substances, the amount of the administration solution was set to 5 mL/kg and the administration liquid by individual was calculated on the basis of the recently measured body weight and it was administered by subcutaneous injection once on the start day of the test using a disposable syringe (1 mL). The test substances were administered only once. For comparison, the control group in which the control substance Semaglutide was administered was prepared, and the comparison group in which Semaglutide was administered was administered once a day, and all the administration was progressed from 9 AM.
as §1, §2

[4] = Single administration: body weight change in DIO mice; assay type: in vivo, Mouse, C57BL/6J-DIO; conditions: for Body Weight (Group, % of initial): daily s.c. injection, mean
Method: as §5, §6, §7, §8
As for the observation, measurement and test schedule for the test groups, the administration start date was set to Day 0, and 7 days from the administration start date were set to one week of administration.
The body weight of each mouse was measured on the day of the start of administration of the test substances (before administration), and thereafter, the body weight was measured every day (measured up to 9 days), and the amount of the administration solution of the test substances was determined on the basis of the most recently measured body weight.
as §2

[5] = Pharmacokinetic test, subcutaneous administration to SD rats (serum ELISA, Human GDF15 Immunoassay); assay type: in vivo; conditions: 2 mg/kg subcutaneous
Method: For evaluation of pharmacokinetic characteristics when each fusion polypeptide was subcutaneously administered to rats, the fusion polypeptides HT-ID1-GDF15, HT-ID2-GDF15 and HT-ID3-GDF15 were subcutaneously administered into SD rats (Koatech, male, 7-week-old, about 250 g; n=3 each; test group) in an amount of 2 mg/kg, respectively, and about 200 μl of blood was collected through the caudal vein at a predetermined time. The blood collection time was performed before administration, and 1, 2, 4, 8, 24, 48, 72, 96, 168, 240 and 336 hours after administration. As the control group for comparison of pharmacokinetic characteristics, GDF15 (R&D Systems) was subcutaneously administered in an amount of 2 mg/kg by the same method to prepare a GDF15 administration group.
After administering into SD Rats as above, blood collected by time-point was centrifuged to obtain serum, and ELISA was performed using Human GDF15 Immunoassay (SGD150, R&D Systems), and the concentration in the serum was measured depending on the time of each polypeptide.

Semaglutide [reference compound]
Feed intake, Mean ([1]; Day 1, 3 nmol/kg once a day): 2.9 | Feed intake, Mean ([1]; Day 2, 3 nmol/kg once a day): 0.7 | Feed intake, Mean ([1]; Day 3, 3 nmol/kg once a day): 1.3 | Feed intake, Mean ([1]; Day 4, 3 nmol/kg once a day): 1.4 | Feed intake, Mean ([1]; Day 5, 3 nmol/kg once a day): 1.7 | Feed intake, Mean ([1]; Day 6, 3 nmol/kg once a day): 1.5 | Feed intake, Mean ([1]; Day 7, 3 nmol/kg once a day): 1.6 | Feed intake, Mean ([1]; Day 8, 3 nmol/kg once a day): 1.9 | Feed intake, Mean ([1]; Day 9, 3 nmol/kg once a day): 2.0 | Feed intake, Mean ([1]; Day 10, 3 nmol/kg once a day): 2.3 | Feed intake, Mean ([1]; Day 11, 3 nmol/kg once a day): 2.2 | Feed intake, Mean ([1]; Day 12, 3 nmol/kg once a day): 3.2 | Feed intake, Mean ([1]; Day 13, 3 nmol/kg once a day): 2.2 | Feed intake, Mean ([1]; Day 14, 3 nmol/kg once a day): 2.5 | Feed intake, Mean ([1]; Day 15, 3 nmol/kg once a day): 2.5 | Feed intake, Mean ([1]; Day 16, 3 nmol/kg once a day): 2.2 | Feed intake, Mean ([1]; Day 17, 3 nmol/kg once a day): 2.4 | Feed intake, Mean ([1]; Day 18, 3 nmol/kg once a day): 2.2 | Feed intake, Mean ([1]; Day 19, 3 nmol/kg once a day): 2.6 | Feed intake, Mean ([1]; Day 20, 3 nmol/kg once a day): 2.6 | Feed intake, Mean ([1]; Day 21, 3 nmol/kg once a day): 2.5 | Feed intake, Mean ([1]; Day 22, 3 nmol/kg once a day): 2.9 | Feed intake, Mean ([1]; Day 23, 3 nmol/kg once a day): 2.0 | Feed intake, Mean ([1]; Day 24, 3 nmol/kg once a day): 2.4 | Feed intake, Mean ([1]; Day 25, 3 nmol/kg once a day): 2.9 | Feed intake, Mean ([1]; Day 26, 3 nmol/kg once a day): 2.4 | Feed intake, Mean ([1]; Day 27, 3 nmol/kg once a day): 2.4 | Feed intake, Mean ([1]; Day 28, 3 nmol/kg once a day): 2.7 | Body Weight, Mean ([2]; Day 0, 3 nmol/kg once a day): 100.0 % of initial | Body Weight, Mean ([2]; Day 1, 3 nmol/kg once a day): 93.9 % of initial | Body Weight, Mean ([2]; Day 2, 3 nmol/kg once a day): 92.6 % of initial | Body Weight, Mean ([2]; Day 3, 3 nmol/kg once a day): 90.4 % of initial | Body Weight, Mean ([2]; Day 4, 3 nmol/kg once a day): 88.4 % of initial | Body Weight, Mean ([2]; Day 5, 3 nmol/kg once a day): 66.2 % of initial | Body Weight, Mean ([2]; Day 6, 3 nmol/kg once a day): 64.1 % of initial | Body Weight, Mean ([2]; Day 7, 3 nmol/kg once a day): 82.6 % of initial | Body Weight, Mean ([2]; Day 8, 3 nmol/kg once a day): 61.9 % of initial | Body Weight, Mean ([2]; Day 9, 3 nmol/kg once a day): 80.7 % of initial | Body Weight, Mean ([2]; Day 10, 3 nmol/kg once a day): 80.3 % of initial | Body Weight, Mean ([2]; Day 11, 3 nmol/kg once a day): 80.3 % of initial | Body Weight, Mean ([2]; Day 12, 3 nmol/kg once a day): 79.1 % of initial | Body Weight, Mean ([2]; Day 13, 3 nmol/kg once a day): 76.8 % of initial | Body Weight, Mean ([2]; Day 14, 3 nmol/kg once a day): 76.7 % of initial | Body Weight, Mean ([2]; Day 15, 3 nmol/kg once a day): 78.1 % of initial | Body Weight, Mean ([2]; Day 16, 3 nmol/kg once a day): 78.3 % of initial | Body Weight, Mean ([2]; Day 17, 3 nmol/kg once a day): 77.2 % of initial | Body Weight, Mean ([2]; Day 18, 3 nmol/kg once a day): 76.7 % of initial | Body Weight, Mean ([2]; Day 19, 3 nmol/kg once a day): 77.1 % of initial | Body Weight, Mean ([2]; Day 20, 3 nmol/kg once a day): 76.1 % of initial | Body Weight, Mean ([2]; Day 21, 3 nmol/kg once a day): 76.8 % of initial | Body Weight, Mean ([2]; Day 22, 3 nmol/kg once a day): 75.9 % of initial | Body Weight, Mean ([2]; Day 23, 3 nmol/kg once a day): 75.6 % of initial | Body Weight, Mean ([2]; Day 24, 3 nmol/kg once a day): 76.0 % of initial | Body Weight, Mean ([2]; Day 25, 3 nmol/kg once a day): 76.3 % of initial | Body Weight, Mean ([2]; Day 26, 3 nmol/kg once a day): 76.5 % of initial | Body Weight, Mean ([2]; Day 27, 3 nmol/kg once a day): 76.2 % of initial | Body Weight, Mean ([2]; Day 28, 3 nmol/kg once a day): 75.7 % of initial | Feed intake, Mean ([3]; Day 0, 3 nmol/kg Daily Inj.): 3.7 | Feed intake, Mean ([3]; Day 1, 3 nmol/kg Daily Inj.): 2.1 | Feed intake, Mean ([3]; Day 2, 3 nmol/kg Daily Inj.): 3.3 | Feed intake, Mean ([3]; Day 3, 3 nmol/kg Daily Inj.): 2.8 | Feed intake, Mean ([3]; Day 4, 3 nmol/kg Daily Inj.): 2.3 | Feed intake, Mean ([3]; Day 5, 3 nmol/kg Daily Inj.): 2.9 | Feed intake, Mean ([3]; Day 6, 3 nmol/kg Daily Inj.): 2.7 | Feed intake, Mean ([3]; Day 7, 3 nmol/kg Daily Inj.): 3.2 | Feed intake, Mean ([3]; Day 8, 3 nmol/kg Daily Inj.): 2.4 | Feed intake, Mean ([3]; Day 9, 3 nmol/kg Daily Inj.): 3.7 | body weight loss effect ([4]; 3 nmol/kg daily s.c. administration): body weight loss effect was continuously shown from Day 1 after administration | Body Weight (Group, % of initial) ([4]; Day 0, 3 nmol/kg): 100 % of initial | Body Weight (Group, % of initial) ([4]; Day 1, 3 nmol/kg): 94 % of initial | Body Weight (Group, % of initial) ([4]; Day 2, 3 nmol/kg): 91 % of initial | Body Weight (Group, % of initial) ([4]; Day 3, 3 nmol/kg): 90 % of initial | Body Weight (Group, % of initial) ([4]; Day 4, 3 nmol/kg): 87 % of initial | Body Weight (Group, % of initial) ([4]; Day 5, 3 nmol/kg): 87 % of initial | Body Weight (Group, % of initial) ([4]; Day 6, 3 nmol/kg): 85 % of initial | Body Weight (Group, % of initial) ([4]; Day 7, 3 nmol/kg): 86 % of initial | Body Weight (Group, % of initial) ([4]; Day 8, 3 nmol/kg): 83 % of initial | Body Weight (Group, % of initial) ([4]; Day 9, 3 nmol/kg): 85 % of initial

rhGDF15: GDF15 (R&D Systems), not fused, control group for comparison of pharmacokinetic characteristics
half-life [5]: 19 h | AUCextp (%) [(AUCinf − AUClast)/AUCinf]*100 ([5]; serum): 0.463% | AUClast ([5]; serum): 4860 ng·h/mL | Cmax (maximum concentration in blood) ([5]; serum): 443 ng/mL | Tmax (reaching time to maximum concentration in blood) ([5]; serum): 1 h | t1/2 (loss half-life) ([5]; serum): 19.0 h | AUCinf ([5]; serum, extrapolated to infinity): 4880 ng·h/mL
